Assay results as given in paper PMC12473028, “Isolation and Biological Evaluation of Human Tyrosinase Inhibitors from the Fruit of Xanthium strumarium L” (Molecules, 2025).
Read-outs that look alike come from different tables or passages of the source. Each block holds one compound with its values, some of them ahead of it.

Legend:
Experiment in all cases: L-DOPA oxidation assay in MM418C1 cell lysate, single dose […] ([…] activity remaining)
Conditions in all cases: read-out: % activity remaining at 1 mg/mL
human tyrosinase (hsTYR) [1] = target: T1, human tyrosinase (hsTYR) (Homo sapiens, UniProt P14679); assay type: cell-free (cell lysate)
T1 construct: gene TYR
T1 sequence (P14679 19-529): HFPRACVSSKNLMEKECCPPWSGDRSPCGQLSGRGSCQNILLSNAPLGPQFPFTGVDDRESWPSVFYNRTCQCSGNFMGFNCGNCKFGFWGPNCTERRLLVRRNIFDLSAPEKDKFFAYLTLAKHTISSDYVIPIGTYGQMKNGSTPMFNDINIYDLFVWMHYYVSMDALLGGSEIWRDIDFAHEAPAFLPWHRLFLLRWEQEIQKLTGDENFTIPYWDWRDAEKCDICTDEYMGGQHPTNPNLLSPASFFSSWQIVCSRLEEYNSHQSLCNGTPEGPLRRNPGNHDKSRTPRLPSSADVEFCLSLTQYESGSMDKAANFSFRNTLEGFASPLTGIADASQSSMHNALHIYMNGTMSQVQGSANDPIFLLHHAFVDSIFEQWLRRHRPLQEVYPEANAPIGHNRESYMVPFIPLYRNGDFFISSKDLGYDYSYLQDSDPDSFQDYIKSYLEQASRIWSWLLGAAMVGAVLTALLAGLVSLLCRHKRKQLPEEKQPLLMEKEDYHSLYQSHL

human tyrosinase (hsTYR) [2] = target: T1, human tyrosinase (hsTYR); assay type: biochemical
human tyrosinase (hsTYR) [3] = target: T1, human tyrosinase (hsTYR); assay type: cell-free

remaining activity at 1000 µg/mL (human tyrosinase (hsTYR) [1]): 68.1%
SMILES: O=C(/C=C/c1ccc(O)c(O)c1)O[C@@H]1C[C@](O)(C(=O)O)C[C@@H](O)[C@H]1O [compound 7, 5-caffeoylquinic acid]

remaining activity at 1000 µg/mL (human tyrosinase (hsTYR) [2]): 78.1%
SMILES: O=C(/C=C/c1ccc(O)c(O)c1)O[C@@H]1CC(OC(=O)/C=C/c2ccc(O)c(O)c2)(C(=O)O)C[C@@H](O)C1O (stereo partly drawn) [compound 11, 1,3-dicaffeoylquinic acid]

remaining activity at 1000 µg/mL (human tyrosinase (hsTYR) [3]): 76.9%
SMILES: CC1(C)C(CO[C@@H]2O[C@H](CO)[C@@H](O)[C@H](O)[C@H]2O)=CC(=O)C2=C1SCC(=O)N2 [compound 9, xanthiside]
